According to patent US20260070902A1, “SULFONYL DERIVATIVES AS CCR6 INHIBITORS” (Hoffmann-La Roche Inc., priority 2022, published 2026):

Assays:
Assay type in all cases: cell-based
[1] = molecular target: T1, human CCR6 (Homo sapiens, UniProt P51684); assay: Human CCR6-CRE reporter assay; design: The second construct contained the open reading frame of human CCR6 in the pUNO1 backbone; host or cells: 293FT cells; settings: relative -Log IC50; 293FT cells transfected with human CCR6 and CRE-luciferase reporter; 6 μM Forskolin, 6 nM CCL20; 5 h
T1 sequence (P51684 1-374): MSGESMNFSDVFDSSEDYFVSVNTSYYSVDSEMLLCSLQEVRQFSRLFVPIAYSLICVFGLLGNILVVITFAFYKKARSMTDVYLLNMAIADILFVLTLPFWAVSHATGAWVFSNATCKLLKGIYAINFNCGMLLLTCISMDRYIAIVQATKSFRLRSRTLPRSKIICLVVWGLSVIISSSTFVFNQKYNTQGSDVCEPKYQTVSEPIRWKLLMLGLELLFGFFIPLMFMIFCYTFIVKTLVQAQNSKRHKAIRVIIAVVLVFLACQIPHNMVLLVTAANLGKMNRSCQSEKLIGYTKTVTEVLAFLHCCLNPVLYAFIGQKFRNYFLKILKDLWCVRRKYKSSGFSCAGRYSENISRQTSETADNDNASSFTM
How it was run: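 293FT cells transiently co-transfected with human CCR6 and a CRE-luc2P reporter, used 48 h later. Compounds incubated with cells in medium containing 6 μM Forskolin and 6 nM CCL20 (assay-medium levels), 0.1% DMSO final, 5 h at 37° C; luminescence read, relative −Log IC50 from four-parameter fit.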

[2] = molecular target: T1, human CCR6; assay: CHO-K1 CCR6 chemotaxis assay towards CCL20; settings: relative -Log IC50; CHO-K1 cells overexpressing human CCR6; migration towards 100 ng/ml CCL20; 4 h
How it was run: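 Human CCR6-overexpressing CHO-K1 cells (2*10^6 cells/ml) were preincubated 30 min at 37 °C with compound (0.2% DMSO), then allowed to migrate 4 h through 8 µm Transwell pores toward 100 ng/ml CCL20. Migrated cells were counted by CellTiter Glo. −Log IC50 came from four-parameter fits normalised to DMSO without/with CCL20.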

[3] = test system: Human CD4+ T cells; assay: CD4+ T cells chemotaxis assay towards CCL20; settings: Homo sapiens, CD4+ T cell, 3 h, relative -Log IC50, human CD4+ T cells stimulated with anti-CD3 and anti-CD28, migration towards 150 ng/ml CCL20
How it was run: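 Donor cells were stimulated overnight with anti-CD3/anti-CD28, then preincubated with compound for 30 min at 37° C (0.2% DMSO final). Migration through […]-pore Transwells toward 150 ng/ml CCL20 ran for 3 h at 37° C. Migrated cells were counted by CellTiter Glo, and relative −Log IC50 came from a four-parameter fit of % inhibition.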

SMILES	IC50 [1]	IC50 [2]	IC50 [3]
Cc1nnc2ccc(-c3ccc(S(=O)(=O)[C@H]4CC[C@H](Nc5ccc(S(F)(F)(F)(F)F)cc5)CC4)cc3)cn12 [Example 11, 4-(pentafluoro-λ^6-sulfanyl)-N-[trans-4-(4-{3-methyl-[1,2,4]triazolo[4,3-a]pyridin-6-yl}benzenesulfonyl)cyclohexyl]aniline]	0.1 µM	0.0251 µM	0.00398 µM
O=S(=O)(c1ccc(-c2ccc3nccn3c2)cc1)[C@H]1CC[C@@H](Nc2ccc(S(F)(F)(F)(F)F)cc2)CC1 [Example 18, 4-(pentafluoro-λ^6-sulfanyl)-N-[cis-4-(4-{imidazo[1,2-a]pyridin-6-yl}benzenesulfonyl)cyclohexyl]aniline]	0.158 µM	0.2 µM	0.00631 µM
CN(C)C(=O)c1ccc(-c2ccc(S(=O)(=O)[C@H]3CC[C@H](Nc4ccc(S(F)(F)(F)(F)F)cc4)CC3)cc2)cn1 [Example 20, N,N-dimethyl-5-(4-{[trans-4-{[4-(pentafluoro-λ^6-sulfanyl)phenyl]Amino}cyclohexyl]sulfonyl}phenyl)pyridine-2-carboxamide]	0.1 µM	0.398 µM	0.0316 µM
NC(=O)c1nnc2ccc(-c3ccc(S(=O)(=O)N4CCC(Nc5ccc(S(F)(F)(F)(F)F)cc5)CC4)cc3)cn12 [Example 26, 6-{4-[(4-{[4-(pentafluoro-λ^6-sulfanyl)phenyl]Amino}piperidin-1-yl)sulfonyl]phenyl}-[1,2,4]triazolo[4,3-a]pyridine-3-carboxamide]	0.0501 µM	0.1 µM	0.0158 µM
Cc1nnc2ccc(-c3ccc(S(=O)(=O)N4CCC(Nc5ccc(S(F)(F)(F)(F)F)cc5)CC4)cc3)cn12 [Example 27, 1-(4-{3-methyl-[1,2,4]triazolo[4,3-a]pyridin-6-yl}benzenesulfonyl)-N-[4-(pentafluoro-λ^6-sulfanyl)phenyl]piperidin-4-amine]	0.0631 µM	0.0631 µM	0.00501 µM
NC(=O)c1cnc2ccc(-c3ccc(S(=O)(=O)[C@H]4CC[C@H](Nc5ccc(S(F)(F)(F)(F)F)cc5)CC4)cc3)cn12 [Example 34, 6-(4-{[trans-4-{[4-(pentafluoro-λ^6-sulfanyl)phenyl]Amino}cyclohexyl]sulfonyl}phenyl)imidazo[1,2-a]pyridine-3-carboxamide]	0.2 µM	0.0398 µM	0.0631 µM
CC(C)c1nnc2ccc(-c3ccc(S(=O)(=O)[C@H]4CC[C@H](Nc5ccc(S(F)(F)(F)(F)F)cc5)CC4)cc3)cn12 [Example 35, 4-(pentafluoro-λ^6-sulfanyl)-N-[trans-4-{4-[3-(propan-2-yl)-[1,2,4]triazolo[4,3-a]pyridin-6-yl]benzenesulfonyl}cyclohexyl]aniline]	0.0794 µM	0.00398 µM	0.000501 µM
Cc1nc2cc(-c3ccc(S(=O)(=O)[C@H]4CC[C@H](Nc5ccc(S(F)(F)(F)(F)F)cc5)CC4)cc3)ccn2n1 [Example 41, 4-(pentafluoro-λ^6-sulfanyl)-N-[trans-4-(4-{2-methyl-[1,2,4]triazolo[1,5-a]pyridin-7-yl}benzenesulfonyl)cyclohexyl]aniline]	0.158 µM	0.0794 µM	0.00501 µM
CC(C)c1nnc2ccc(-c3ccc(S(=O)(=O)[C@H]4CC[C@H](Nc5ccc(S(F)(F)(F)(F)F)cc5)CC4)cc3)nn12 [Example 50, 4-(pentafluoro-λ^6-sulfanyl)-N-[trans-4-{4-[3-(propan-2-yl)-[1,2,4]triazolo[4,3-b]pyridazin-6-yl]benzenesulfonyl}cyclohexyl]aniline]	0.126 µM	0.1 µM	0.0251 µM
CC(C)c1nnc2cnc(-c3ccc(S(=O)(=O)[C@H]4CC[C@H](Nc5ccc(S(F)(F)(F)(F)F)cc5)CC4)cc3)cn12 [Example 51, 4-(pentafluoro-λ^6-sulfanyl)-N-[trans-4-{4-[3-(propan-2-yl)-[1,2,4]triazolo[4,3-a]pyrazin-6-yl]benzenesulfonyl}cyclohexyl]aniline]	0.0631 µM	0.00794 µM	0.002 µM
